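Following 48 hours of exposure in 96-well plates, responses at five concentrations were used to interpolate endpoints linearly. TGI marks complete inhibition of growth.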
Columns and labels:
Assay in all cases: growth of human tumour cells (NCI), 48 h
MCF7 breast = test system: MCF7 breast
NCI-H522 lung = test system: NCI-H522 lung
PC-3 prostate = test system: PC-3 prostate
MDA-MB-435 = test system: MDA-MB-435
MDA-N = test system: MDA-N
NCI-H460 lung = test system: NCI-H460 lung
SN12C renal = test system: SN12C renal
U251 CNS = test system: U251 CNS
SF-268 CNS = test system: SF-268 CNS
EKVX NSCLC = test system: EKVX NSCLC
MALME-3M melanoma = test system: MALME-3M melanoma
HL-60(TB) leukemia = test system: HL-60(TB) leukemia
A549 NSCLC = test system: A549 NSCLC
TK-10 renal = test system: TK-10 renal
BT-549 breast = test system: BT-549 breast
MDA-MB-231 breast = test system: MDA-MB-231 breast
UACC-62 melanoma = test system: UACC-62 melanoma
HCT-15 colon = test system: HCT-15 colon
SNB-19 CNS = test system: SNB-19 CNS
OVCAR-4 ovarian = test system: OVCAR-4 ovarian

SMILES	TGI (MCF7 breast) [µM]	TGI (NCI-H522 lung) [µM]	TGI (PC-3 prostate) [µM]	TGI (MDA-MB-435) [µM]	TGI (MDA-N) [µM]	TGI (NCI-H460 lung) [µM]	TGI (SN12C renal) [µM]	TGI (U251 CNS) [µM]	TGI (SF-268 CNS) [µM]	TGI (EKVX NSCLC) [µM]	TGI (MALME-3M melanoma) [µM]	TGI (HL-60(TB) leukemia) [µM]	TGI (A549 NSCLC) [µM]	TGI (TK-10 renal) [µM]	TGI (BT-549 breast) [µM]	TGI (MDA-MB-231 breast) [µM]	TGI (UACC-62 melanoma) [µM]	TGI (HCT-15 colon) [µM]	TGI (SNB-19 CNS) [µM]	TGI (OVCAR-4 ovarian) [µM]
COC(=O)C1(c2ccc(N(C)C)cc2OC)CCCN(C(=O)Oc2ccccc2[N+](=O)[O-])CCc2c1[nH]c1ccccc21 (centres undefined)	> 100	> 100	> 100	> 100	> 100	> 100	> 100	> 100	> 100	> 100	> 100	> 100	> 100	> 100	> 100	> 100	> 100			
C1=C2C3=[N+](CCCC3)CC2Cc2ccsc21 (centres undefined)	> 100	> 100	> 100	> 100	> 100	> 100	> 100	> 100	> 100	> 100	> 100	> 100	> 100	> 100	> 100	> 100	> 100	> 100	> 100	> 100
CC[N+](C)(CC)Cc1ccccc1[N+](=O)[O-]	> 100	> 100	> 100	> 100	> 100	> 100	> 100	> 100	> 100	> 100	> 100	> 100	> 100	> 100	> 100	> 100	> 100	> 100		> 100
COc1ccc2c(c1)CCCc1cn[nH]c1-2	> 100	> 100				> 100	> 100	> 100	> 100	> 100	> 100	> 100	> 100				> 100	> 100	> 100	> 100
C[N+](C)(N)CCC[N+](C)(C)N	> 100	> 100	> 100	> 100	> 100	> 100	> 100	> 100	> 100	> 100	> 100	> 100	> 100	> 100	> 100	> 100	> 100	> 100	> 100	> 100
O=C(NCCCNC(=O)c1ccc2cc(O)c(O)cc2c1)c1ccc2cc(O)c(O)cc2c1	> 100	> 100	> 100	> 100	> 100	> 100		> 100	> 100	> 100	> 100	59.7	> 100	> 100	> 100		42.7	> 100	56.5	45.4
Cc1cc(C)cc(Nc2nnc3n2S(=O)(=O)c2cc(C#N)c(Cl)cc2S3)c1	6.56	4.59		10.4		12.2	7.15	4.29	5.48	21.2	2.92	19.4	32.9		5.98	12.8	15.4	8.16	21.6	22.1
C=C1CC[C@@]2(OC1)OC1C[C@H]3[C@@H]4CC=C5C[C@@H](O)CC(OC6OCC(OC(=O)[C@@H](O)[C@@H](C)CC)C(OC(C)=O)C6OC6OC(C)C(O)C(O)C6O)[C@]5(C)[C@H]4CC[C@]3(C)C1[C@@H]2C (some centres undefined)	3.23	3.27	3.16	3.38	3.51	3.32	4	3.21	4.12	6.51	> 10	4.87	4.73	3.87	> 10	3.23	3.37	3.67	3.87	> 10
CCSc1nc(N2CCOCC2)c2cn[nH]c2n1	> 100	> 100	> 100	> 100		> 100	> 100	> 100	> 100	> 100	> 100	> 100	> 100	> 100	> 100	> 100	> 100	> 100	> 100	> 100
CC(=O)[C@]1(O)Cc2c(O)c3c(c(O)c2C(OC2OC(C)C(O)C(O)C2F)C1)C(=O)c1ccccc1C3=O (some centres undefined)	> 45.2	2.28	3.3	1.95	2.67		12.4	0.996	2.28	14.7	1.48	< 0.0303		71.3	2.44	7.21	0.724			11.2
Cc1ccc2nc3ccccc3c(C3C4C(=O)N(c5ccc(Br)cc5Cl)C(=O)C4ON3C(C(N)=O)c3ccccc3)c2c1 (centres undefined)	> 25	> 25	> 25	> 25	23.6	> 25	23.2	> 25	> 25	15.5	> 25	> 25	> 25	> 25		> 25	> 25	19.5	> 25	> 25
CCOc1cc(NC(C)=O)ccc1C(=O)NN1C(=O)C(Oc2ccccc2)C1c1ccc(O)c(OC)c1 (centres undefined)	> 100		> 100	> 100	> 100		99.4	> 100		> 100		44.8	> 100	> 100	> 100	> 100		> 100	> 100	> 100
CC(C(=O)O)c1cnn(-c2ccccc2)c1-n1cccc1 (centres undefined)	> 100	> 100				> 100	> 100	> 100	> 100	> 100	> 100	> 100	> 100				> 100	> 100	> 100	> 100
CN(C)CC(CN(C)C)c1ccccn1	> 100	> 100	> 100	> 100	> 100	> 100	> 100	> 100	> 100	> 100	> 100	> 100	> 100	> 100	> 100	> 100	> 100	> 100	> 100	> 100
CC[C@]12C=CCN3CC[C@@]4(c5ccc(OC)cc5N(C)[C@H]4[C@@](O)(C(=O)OC)[C@@H]1OC(C)=O)[C@@H]32	> 200	> 200				> 200	> 200	> 200	> 200	> 200	> 200	> 200	> 200				> 200	> 63.2	> 200	> 63.2
O=c1c2ccccc2nnn1-c1n[nH]c2ccccc12	> 100	> 100	> 100	> 100		> 100	> 100	> 100	> 100	> 100	> 100		> 100	> 100	> 100	> 100	> 100	> 100	> 100	> 100
Oc1ccc2ccccc2c1N=Nc1ccc(F)cc1		> 100				> 100	> 100	> 100	> 100		> 100	> 100	> 100	> 100			> 100	> 100	> 100	> 100
O=[N+]([O-])c1ccccc1N=Nc1c(O)sc2ccccc12	> 100	> 100	> 100	> 100	> 100	> 100		> 100	> 100	> 100	> 100	> 100	> 100	> 100			> 100	> 100	> 100	98.4
NCCc1nc(-c2nc(C(=O)O)cs2)cs1	> 100	> 100	> 100	> 100	> 100	> 100	> 100	> 100	> 100	> 100	> 100	> 100	> 100	> 100	> 100	> 100	> 100	> 100	> 100	> 100
O=C(Nc1ccc2nc(-c3ccccc3)cn2c1)Oc1ccccc1	> 100	90.2	> 100	47.5	41.9	> 100	> 100	> 100	> 100	> 100	> 100	> 100	> 100	> 100	> 100	> 100	> 100	> 100	> 100	> 100
CC[C@@H]1/C=C/C=C/C[C@H](C)[C@@H](O)[C@](C)(O)C(=O)[C@H](C)[C@@H](O)[C@H](C)C(=O)[C@H](C)[C@@H](O)[C@H](C)/C=C/C(=O)O[C@H]2[C@@H](C)[C@@H](CC1)O[C@]1(O[C@H](CC(C)O)[C@H](C)CC1=O)[C@@H]2C (some centres undefined)	4.7	6.59	6.41	10.6	10.7	6.85	8.72	11.9	7.93	5.9	14.2	11.4	> 16.2	17.9	10.9	8.47	6.68	> 21.2	> 25	> 19.7
CCOCNC(=O)N(COCC)COCC		> 100					> 100		> 100	> 100	> 100	> 100	> 100				> 100	> 100	> 100	
CC(C)CCN=c1cc2n(-c3ccc(Cl)cc3)c3ccccc3nc-2cc1Nc1ccc(Cl)cc1	> 42	7.06				15.6	58.1	26.5	> 100	> 53	31	11.1	> 56.4				20.4	23.2	> 100	18.4

Source: PubChem BioAssay (NCI)
